{
  "source": "patent US11786500B2",
  "about": "“Glutaminase inhibitor therapy” (Board of Regents, The University of Texas System, priority 2017, dated 2023)",
  "key": {"[1]": {"tested_on": "responder cells OVCAR420, OVCAR429", "experiment": "Analysis of reactive oxygen species production (CM-H2DCFDA, flow cytometry)", "type": "cell-based", "settings": "1 μM, 48 hours", "experimental": "One day prior to the experiment, OVCAR-8 and OVCAR420 cells were seeded in 6 well dishes (250,000 cells per well). […] The following day, an allocated well was treated with hydrogen peroxide for 20-30 minutes as a positive control for ROS generation. All wells were then stained with CM-H2DCFDA (5 μM, Life Technologies) for 30 minutes at 37° C., washed with 1×PBS, harvested by trypsinization, and re-suspended in 400 μl phenol-free RPMI medium. Cells were strained through a […] cell strainer and analyzed using a flow cytometer (LSR Fortessa).\nFor each condition, calculation of mean fluorescence intensity allows for the comparison of ROS accumulation between control and treated samples. Shown are responder cells: (a) OVCAR420; (b) OVCAR429, with GFP-A on the x-axis, and count on the y-axis."}, "OVCAR8 [2]": {"tested_on": "OVCAR8", "experiment": "Cell viability / proliferation assay (Cell Titer Glo, 72 h)", "type": "cell-based"}, "OVCAR429 [3]": {"tested_on": "OVCAR429", "experiment": "Cell viability / proliferation assay (Cell Titer Glo, 72 h)", "type": "cell-based"}, "[4]": {"tested_on": "OVCAR8, OVCAR429, OVCAR4, and IGROV1 cells", "experiment": "Metabolomics (LC-MS/MS metabolic profiling)", "type": "cell-based", "settings": "1 μM, 24 hours; muted or absent in non-responder lines", "experimental": "OVCAR8 cells were plated at 3×10^6 cells per 10 cm dish and OVCAR429, IGROV1, and OVCAR4 were plated at 3.5×10^6 cells per 10 cm dish 24 hours (24 h) prior to treatment. […] On day 1 (d.1), 2 hours (2 h) prior to harvest, samples were washed with 5 mL media containing 10% dialyzed FBS. 10 mL of media was added to plates and plates were returned to the incubator for 2 h. Media was then aspirated from plates and 4 mL of 80% chilled MeOH (−80° C.) was immediately added. Plates were incubated at −80° C. for 15 minutes. Cells were then scraped with cell scraper to release cells while keeping plates on dry ice. The MeOH/cell lysate mixture was collected and transferred to conical tubes on dry ice. Tubes were centrifuged at full speed in 4° C. chilled centrifuge for 5 minutes. Supernatant was transferred to another set of conical tubes on dry ice by decanting. The remaining pellet was re-suspended in 500 μL of cold MeOH and the mixture was moved to a microcentrifuge tube. Microfuge tubes were spun at full speed for 5 minutes in 4° C. chilled microcentrifuge. […]\nDifferentially abundance analysis of metabolite levels was carried out using a moderated t-test function from Bioconductor's limma package (Smyth 2005). […] The normalization factor was calculated by first defining a vector, Nmed, to be the median peak area for each metabolite across a set of samples. […]"}, "OVCAR8 [5]": {"tested_on": "OVCAR8", "experiment": "Analysis of glutathione levels (GSH-Glo)", "type": "cell-based", "settings": "OVCAR8, 1 μM, 24 hours", "experimental": "(§1) Analysis of Glutathione Levels: Cells were plated in 96-well Corning Costar 3603 at 10,000 cells/well on Day 0. Cells were allowed to settle and attach overnight. […] Cells were incubated with compound or relevant controls for 24 hours. On Day 2, 24 hours after treatment, cells were analyzed by GSH-Glo (PromegaV6912) per manufacturer's instructions. […] Duplicate wells were plated and then stained with crystal violet in order to correct for differences in cell growth as described below.\n(§2) GLS-dependence is driven by addiction to glutamine-dependent, glutathione-mediated redox maintenance in OVCA responder cell lines. […] Consistent with this hypothesis, GLS-1 inhibition induced a significant decrease in intracellular glutathione and a concurrent increase in reactive oxygen species (FIGS. 7 and 8) in responder lines."}, "OVCAR420 [6]": {"tested_on": "OVCAR420", "experiment": "Analysis of glutathione levels (GSH-Glo)", "type": "cell-based", "settings": "OVCAR420, 1 μM, 24 hours", "experimental": "as §1, §2"}, "OVCAR429 [7]": {"tested_on": "OVCAR429", "experiment": "Analysis of glutathione levels (GSH-Glo)", "type": "cell-based", "settings": "OVCAR429, 1 μM, 24 hours", "experimental": "as §1, §2"}, "OVCAR4 [8]": {"tested_on": "OVCAR4", "experiment": "Analysis of glutathione levels (GSH-Glo)", "type": "cell-based", "settings": "OVCAR4 (non-responder), 24 hours", "experimental": "as §1, §2"}, "[9]": {"tested_on": "OVCAR8 and OVCAR420 cells", "experiment": "DNA damage staining and quantification (γH2AX foci)", "type": "cell-based", "settings": "48 hours", "experimental": "Cells were then fixed using 4% Paraformaldehyde and permeabilized using 0.5% TritonX100. Fixed cells were stained with Anti-γH2AX, rabbit (Bethyl IHC-00059) (1:500) for 2 h at 37 C. The secondary antibody used was Alexa Fluor 546 donkey anti-rabbit (Invitrogen A10040) (1:150) simultaneously with Hoechst 33342, Trihydrochloride, Trihydrate (Invitrogen, H3570) (1:1000) for 1 h at 37 C. DNA damage was measured as a γH2AX signal per nucleus using PerkinElmer High Content Screening System Operetta with the Harmony software. First, nuclei were selected using Hoechst staining. Then, single cells were gated based on nucleus size and shape. Apoptotic and mitotic cells were excluded based on maximum Hoechst intensity in the nucleus. DNA damage foci were identified within the gated nuclei using the “find spots in Alexa 546 channel” analysis block. Finally, the total intensity of Alexa 546 within all “spots” in the nucleus, or the total number of spots in the nucleus, averaged per cell, was calculated.\nGLS-1 inhibition induces oxidative stress that leads to accumulation of DNA damage. […] Moreover, we observed an accumulation of γH2AX foci, a marker of DNA damage, and the likely cause of anti-proliferative effects observed upon GLS-1 inhibition (FIG. 11)."}, "OVCAR420 [10]": {"tested_on": "OVCAR420", "experiment": "cells"}, "IGROV1": {"tested_on": "IGROV1", "experiment": "Cell viability / proliferation assay (Cell Titer Glo, 72 h)", "type": "cell-based", "source_text": "(§3) Cells were allowed to settle and attach overnight."}, "A2780": {"tested_on": "A2780", "experiment": "Cell viability / proliferation assay (Cell Titer Glo, 72 h)", "type": "cell-based", "source_text": "as §3"}, "OVCAR4 [11]": {"tested_on": "OVCAR4", "experiment": "Cell viability / proliferation assay (Cell Titer Glo, 72 h)", "type": "cell-based", "source_text": "as §3"}, "[12]": {"tested_on": "ASNSlow HGSOC patient-derived xenograft", "experiment": "ASNSlow HGSOC patient-derived xenograft (PDX) model", "type": "in vivo, NOD/SCID mice", "settings": "orally 100 mg/kg, BID for 39 days; p<0.0001 vs vehicle control", "experimental": "The the anti-tumor effects of Compound 2 were tested in vivo in an ASNS^low HGSOC patient-derived xenograft (PDX) model using human tumor tissue that was identified through immunohistochemistry to be ASNS^low and characterized through histological phenotyping to be of a high-grade serous subtype, implanted in to NOD/SCID mice.\nCompound 2 inhibits tumor growth of an ASNS^low PDX xenograft as a single agent in NOD/SCID mice (FIG. 23(b)). In this experiment, Compound 2, administered orally at a dose of 100 mg/kg, BID for 39 days inhibited tumor growth (TGI=50%, p<0.0001 for tumor volumes after treatment with Compound 2 vs vehicle control)."}, "OVCAR-8 tumors": {"tested_on": "OVCAR-8 tumors", "experiment": "Glutamate:glutamine ratio in OVCAR-8 tumor lysates (mass spec)", "type": "in vivo", "settings": "dosed for 1, 7 or 21 days", "experimental": "OVCAR-8 tumors were dosed for 1, 7 or 21 days and then harvested from animals. Tumor lysates were analyzed by mass spec for the presence of glutamine and glutamate."}, "SK-OV-3 cells": {"tested_on": "SK-OV-3 cells", "experiment": "Orthotopic model of ovarian cancer (SK-OV-3, intraperitoneal)", "type": "in vivo, athymic nude mice", "settings": "day 21; compared to vehicle or paclitaxel alone", "experimental": "SK-OV-3 cells were injected into the intraperitoneal cavity of athymic nude mice and allow to grow for 7 days. At day 7, animals were treated with the in vivo tool compound to inhibit GLS-1 and animals were monitored for clinical disease signs."}, "[13]": {"tested_on": "OVCAR-8 subcutaneous xenografts", "experiment": "OVCAR-8 subcutaneous xenograft", "type": "in vivo, athymic mice", "settings": "100 mpk, twice a day, oral gavage, three weeks", "experimental": "OVCAR-8 cells were implanted subcutaneously into athymic mice and allowed to grow into an established tumor. Animals were then treated with compound 2, for three weeks (100 mpk, twice a day) by oral gavage."}},
  "note": "Entries after “also recorded” stand apart in the source; their conditions may differ. Where two headings read alike, the source gives them in different places.",
  "data": [
    {"smiles": "O=C(Cc1cccc(OC(F)(F)F)c1)Nc1ccc(CCCCc2nnc(NC(=O)Cc3ccccn3)s2)nn1", "note": "[Compound 1, 2-(pyridin-2-yl)-N-{5-[4-(6-{2-[3-(trifluoromethoxy)phenyl]acetamido}pyridazin-3-yl)butyl]-1,3,4-thiadiazol-2-yl}acetamide]", "values": [
      {"measurement": "accumulation of intracellular ROS", "setting": "[1]", "result": "induces an accumulation of ROS"},
      {"measurement": "IC50", "setting": "OVCAR8 [2]; Homo sapiens, OVCAR-8, OVCAR8, 72 h, read-out: IC50, viability (relative to DMSO)", "result": 0.013, "unit": "µM"},
      {"measurement": "response, 72 hour viability", "setting": "OVCAR8 [2]; OVCAR8", "result": "nM sensitivity"},
      {"measurement": "IC50", "setting": "OVCAR429 [3]", "result": 0.076, "unit": "µM"},
      {"measurement": "response, 72 hour viability", "setting": "OVCAR429 [3]; OVCAR429", "result": "nM sensitivity"},
      {"measurement": "IC50", "setting": "OVCAR429 [3]; OVCAR429, 72 h, read-out: IC50, viability (relative to DMSO)", "result": 0.059, "unit": "µM"},
      {"measurement": "changes in metabolite levels", "setting": "[4]", "result": "decrease in TCA cycle activity"},
      {"measurement": "GSH levels", "setting": "OVCAR8 [5]", "result": "significantly decreased"},
      {"measurement": "GSH levels", "setting": "OVCAR420 [6]", "result": "significantly decreased"},
      {"measurement": "GSH levels", "setting": "OVCAR429 [7]", "result": "significantly decreased"},
      {"measurement": "GSH levels", "setting": "OVCAR4 [8]", "result": "does not show a significant decrease"},
      {"measurement": "DNA damage (γH2AX foci per nuclei)", "setting": "[9]", "result": "induces DNA damage"},
      {"measurement": "IC50", "setting": "OVCAR420 [10]", "result": 0.059, "unit": "µM"},
      {"measurement": "response, 72 hour viability", "setting": "IGROV1", "result": "resistant"},
      {"measurement": "response, viability", "setting": "A2780", "result": "no response"},
      {"measurement": "response, viability", "setting": "OVCAR4 [11]", "result": "resistant; also recorded: no response"}
    ]},
    {"smiles": "CNC(=O)c1cn(C[C@H](F)CCc2ccc(NC(=O)Cc3cc(OC4CC(F)(F)C4)cc(C)n3)nn2)nn1", "note": "[Compound 2, (R)-1-(4-(6-(2-(4-(3,3-difluorocyclobutoxy)-6-methylpyridin-2-yl)acetamido)pyridazin-3-yl)-2-fluorobutyl)-N-methyl-1H-1,2,3-triazole-4-carboxamide]", "values": [
      {"measurement": "TGI (tumor growth inhibition)", "setting": "[12]", "result": 50, "unit": "%"},
      {"measurement": "glutamate:glutamine ratio in tumors", "setting": "OVCAR-8 tumors", "result": "altered glutamine metabolism"},
      {"measurement": "combined nodule weight per animal", "setting": "SK-OV-3 cells", "result": "robust reduction"},
      {"measurement": "tumor growth (tumor volume)", "setting": "[13]", "result": "significant tumor growth inhibition"}
    ]}
  ]
}
